{"source": "patent US20140087991A1", "about": "“PEPTIDE PRODRUGS” (The Johns Hopkins University, priority 2006, published 2014)", "key": {"[1]": {"tested_on": "human MDA-MB231 breast cancer xenografts", "assay": "Antitumor effect in breast cancer xenografts", "type": "in vivo, nude mice", "settings": "FIG. 6 legend, values not given"}, "[2]": {"target": "T1, His-tagged FAP (Homo sapiens, UniProt Q12884)", "T1 construct": "the extracellular domain of FAP was cloned with a His-6 tag; made in house", "T1 sequence (Q12884 26-760 limits assumed)": "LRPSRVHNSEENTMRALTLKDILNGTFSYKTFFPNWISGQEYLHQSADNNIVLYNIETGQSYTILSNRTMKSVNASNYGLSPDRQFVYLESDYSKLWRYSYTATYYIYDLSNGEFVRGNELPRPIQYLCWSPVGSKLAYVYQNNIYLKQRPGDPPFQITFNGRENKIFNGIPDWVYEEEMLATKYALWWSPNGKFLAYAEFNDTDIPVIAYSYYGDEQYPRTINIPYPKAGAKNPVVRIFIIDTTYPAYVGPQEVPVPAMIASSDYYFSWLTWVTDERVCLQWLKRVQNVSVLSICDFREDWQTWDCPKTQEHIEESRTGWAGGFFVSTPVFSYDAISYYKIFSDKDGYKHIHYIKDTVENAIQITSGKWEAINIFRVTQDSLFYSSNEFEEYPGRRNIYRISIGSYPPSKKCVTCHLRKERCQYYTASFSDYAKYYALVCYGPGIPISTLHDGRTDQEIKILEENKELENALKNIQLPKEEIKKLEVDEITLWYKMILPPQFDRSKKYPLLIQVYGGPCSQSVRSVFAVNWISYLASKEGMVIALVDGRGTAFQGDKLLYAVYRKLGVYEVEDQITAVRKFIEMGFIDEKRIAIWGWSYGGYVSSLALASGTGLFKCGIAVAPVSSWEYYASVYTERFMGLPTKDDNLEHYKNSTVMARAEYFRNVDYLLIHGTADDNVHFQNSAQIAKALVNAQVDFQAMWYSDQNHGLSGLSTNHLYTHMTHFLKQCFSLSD", "assay": "FAP hydrolysis of MCA/DNP fluorescence quenched peptide substrates", "type": "biochemical", "procedure": "Quenched substrates were prepared by using the MCA/DNP fluorophore/quencher pair. Synthesis of peptides was done using standard Fmoc solid phase coupling on NovaTag™ Dnp resin with a substitution level of 0.4 mmole/g (Novabiochem, San Diego, Calif.). N-terminal capping was done twice overnight with N-(7-methoxycoumarin-4-acetyloxy)succinimide (MCA-Osu) and 1-Hydroxybenzotriazole (HOBt) in N-Methyl 2 Pyrrolidone (NMP). Peptides were cleaved with 95% TFA, 2.5% TIS and 2.5% water. The purity and mass of each quenched peptide was confirmed by Reversed Phase-HPLC and MALDI-TOF analysis.\nQuenched peptide substrates were weighed and dissolved in DMSO to obtain a final concentration of 50 mM and were stored at −20° C. until later use. Dilutions (e.g. 200 μM, 100 μM, 50 μM, 25 μM) were prepared in duplicates in the reaction buffer. His-tagged FAP was added to a final concentration of 5 nM. Release of free MCA was measured at excitation 355 nm and emission 460 nm in a 96-well fluorescence plate reader. Controls consisted of substrates in buffer±BSA.\nOn the basis of the 8.5 kDa gelatin cleavage map a series of fluorescence quenched substrates were prepared (colored sequences in Table 3) by using the Methoxycoumarin (MCA)/Dinitrophenyl (DNP) FRET combination (52). […]"}, "[3]": {"tested_on": "FAP-transfected MDA-MB-231 cells", "assay": "Hydrolysis of quenched peptides by FAP-transfected MDA-MB-231 cells", "type": "cell-based, human", "settings": "50 μM in serum containing media", "source_text": "Human breast cancer cell lines MCF-7 and MDA-MB-231 were selected for transfection because the cells were negative for FAP when grown under standard culture conditions (25). Details of transfection methodology are described in methods section of Specific Aim 2 below. Briefly, a 2.2 kb PCR fragment was purified by gel electrophoresis, digested with NheI and cloned into bicistronic pIRES vector (kindly provided by Dr. Ben Park, The Johns Hopkins University) previously digested with Nhe 1. Final construct was designated as pFAPIRES. Sequencing primers were designed for the entire length of the gene and were confirmed to be correct. The cells were transfected using Fugene 6 (Roche). Control transfections were done on the same lines with the empty IRES vector. Cells were characterized for production of FAP by Flow Cytometry (FIG. 17A-FIG. 17D).\n(§1) Subsequently, one of the MDA-MB-231 clones was used to evaluate FAP activity in vitro. In this assay cells were grown in serum containing media to 70% confluency followed by addition of fluorescence quenched peptides into the media at concentration of 50 μM. As a control cell lines transfected with the carboxypeptidase PSMA using the same vector system were used. Cells were incubated with three different FAP substrates, FIG. 18."}, "[4]": {"tested_on": "control cells transfected with PSMA", "assay": "Hydrolysis of quenched peptides by control cells transfected with PSMA", "type": "cell-based, human", "settings": "50 μM", "procedure": "as §1"}}, "note": "Ends that are not written are not given here. * marks the point of attachment. Mu = morpholinocarbonyl, O=C(N1CCOCC1)*"}
{"substance": "FAP activated prodrug: FAP selective peptide Mu-SGEAGPA (Mu = morpholinocarbonyl) coupled to 12 ADT (12-aminododecanoyl thapsigargin) (not fully specified (C-terminus); printed as Mu-SGEAGPA; also: coupled to 12ADT (12-aminododecanoyl thapsigargin))", "values": [{"measurement": "antitumor effect", "setting": "[1]", "value": "antitumor effect"}]}
{"substance": "VGPAGK (also: MCA/DNP quench labels) [tested as MCA/DNP fluorescence quenched substrate]", "values": [{"measurement": "Km", "setting": "[2]; FAP hydrolysis of quenched substrate, Michaelis Menten", "value": "~50", "unit": "µM"}, {"measurement": "hydrolysis by FAP", "setting": "[2]; substrate at 25 μM", "value": "rapidly hydrolyzed"}, {"measurement": "hydrolysis by FAP-positive cells", "setting": "[3]", "value": "appreciably hydrolyzed"}, {"measurement": "hydrolysis by control media", "setting": "[4]", "value": "relatively stable to hydrolysis"}]}
